Data published in article PMC7896091, “Synthesis of novel phytol-derived γ-butyrolactones and evaluation of their biological activity” (Scientific Reports, 2021).

Legend:
[1] = tested on: MV4-11 cells; assay: Antiproliferative activity, MTT assay; type: cell-based, human; details: for IC50: 72 h exposure, MTT, mean ± SD, n.a = no activity in concentration of 5, 25, 125, 625 μM; for Selectivity index SI, MV4-11: SI = IC50 BALB/3T3 / IC50 MV4-11
Experimental: (§1) Human biphenotypic B myelomonocytic leukemia MV4-11, human colon cancer LoVo cell line and normal mouse fibroblast BALB/3T3 cells were obtained from American Type Culture Collection (Rockville, Maryland, USA), human lung carcinoma A549 cells were obtained from European Collection of Authenticated Cell Cultures (UK). All the cell lines are being maintained at the Hirszfeld Institute of Immunology and Experimental Therapy, PAS, Wroclaw, Poland and were cultured according the procedure described before.
(§2) Cell lines were cultured according to the protocol described before. MV4-11 cells were cultured in RPMI 1640 medium (Gibco, UK) with 1.0 mM sodium pyruvate, and 10% fetal bovine serum (FBS) (all from Sigma-Aldrich, Germany). A549, LoVo and LoVo/DX cells were cultured in RPMI 1640 + Opti-MEM (1:1) (both from Gibco, UK) supplemented with 5% fetal bovine serum, 1.0 mM sodium pyruvate (LoVo and LoVo/DX cells) (all from Sigma Aldrich Germany) and 0.1 μg/mL doxorubicin chloride (Accord) (only LoVo/DX cells). BALB/3T3 cells in Dulbecco medium (IIET, Poland) supplemented with 10% fetal bovine serum (Sigma-Aldrich, Germany). All culture media were supplemented with 2 mM L-glutamine (Sigma-Aldrich, Germany), 100 units/mL penicillin, and 100 µg/mL streptomycin (both from Polfa Tarchomin S.A., Poland). All cell lines were grown at 37 °C with 5% CO2 humidified atmosphere.
(§3) The solutions of the compounds (50 mM) were prepared by dissolving the substances in DMSO (Sigma Aldrich, Germany). Then the tested compounds were diluted in culture medium to reach the final concentrations of 625, 125, 25 and 5 μM. Before adding of the tested compounds (24 h prior), the cells were plated in 96-well plates (Sarstedt, Germany) at a density of 1 × 10^4 or 0.5 × 10^4 (A549) cells per well. The assay was performed after 72 h of exposure to 625, 125, 25 and 5 μM of the tested agents. The in vitro cytotoxic effect of all agents was examined using the MTT (MV4-11) or SRB assay, described previously. The results were calculated as an IC50 (inhibitory concentration 50%) the concentration of tested agent, which is cytotoxic for 50% of the cancer cells. Each compound in each concentration was tested in triplicate in a single experiment, which was repeated 3–5 times.

[2] = tested on: MV4-11 cells; assay: Cell cycle analysis by flow cytometry (propidium iodide); type: cell-based, human; details: MV4-11, 75 µM, 72 h
Experimental: Cell cycle analysis was carried out according to the procedure previously described. The MV4-11 cells were seeded at the density of 1 × 10^5 cells/well of culture medium on 24-well plates (Sarstedt, Germany) to the final volume of 2 mL and were exposed to the test compounds at concentrations 75 μM for 72 h. After incubation, the cells were collected and 1 × 10^6 of cells were washed twice in cold PBS and fixed for 24 h in 70% ethanol at − 20 °C. Then the cells were washed twice in PBS and incubated with RNAse (8 μg/mL, Fermentas, Germany) at 37 °C for 1 h. The cells were stained for 30 min. with propidium iodide (50 μg/mL, Sigma Aldrich, Germany) at 4 °C and the cellular DNA content was analyzed by flow cytometry using BD LSRFortessa cytometer (BD Bioscience, San Jose, USA). Compounds at each concentration were tested at least three times independently. Obtained results were analyzed using Flowing software 2 (Cell Imaging Core, Turku Centre for Biotechnology, University of Turku Åbo Akademi University).

[3] = tested on: BALB/3T3 cells; assay: Toxicity towards normal fibroblasts, SRB assay; type: cell-based; details: 72 h exposure, mean ± SD, n.a = no activity in concentration of 5, 25, 125, 625 μM
Experimental: as §1, §2, §3

[4] = tested on: LoVo cells; assay: Antiproliferative activity, SRB assay; type: cell-based, human; details: for IC50: 72 h exposure, SRB, mean ± SD, n.a = no activity in concentration of 5, 25, 125, 625 μM; for Selectivity index SI, LoVo: SI = IC50 BALB/3T3 / IC50 LoVo
Experimental: as §1, §2, §3

[5] = tested on: A549 cells; assay: Antiproliferative activity, SRB assay; type: cell-based, human; details: for IC50: 72 h exposure, SRB, mean ± SD, n.a = no activity in concentration of 5, 25, 125, 625 μM; for Selectivity index SI, A549: SI = IC50 BALB/3T3 / IC50 A549
Experimental: as §1, §2, §3

[6] = tested on: caspase-3/7 in MV4-11 cells; assay: Caspase-3/7 activity determination (Ac-DEVD-ACC substrate); type: cell-based, human; details: MV4-11, 75 µM, 72 h
Experimental: Caspase-3/7 activity determination was performed according to the protocol previously described. The MV4-11 cells were seeded at the density of 1 × 10^5 cells/mL of culture medium on 24-well plates (Sarstedt, Germany) to the final volume of 2 mL. The cells were exposed to the test compounds at concentrations 75 μM or campthothecin (0.05 μg/mL) as a positive control, for 72 h. After 72 h of the incubation, the cells were collected and centrifuged (5 min., 4 °C, 250×g). Cells were suspended in 50 µL of ice-cold lysis buffer (50 mM HEPES, 10% (w/v) sucrose, 150 mM NaCl, 2 mM EDTA, 1% (v/v) Triton X-100, pH 7.3, IIET, Poland) and incubated 30 min. at 4 °C. After the incubation, 40 µL of each sample was transferred to a white, 96-well plate (Corning, USA) containing 160 µL of the reaction buffer (20 mM HEPES, 10% sucrose, 100 mM NaCl, 1 mM EDTA, 10 mM DTT, 0.02% Trition X-100, pH 7.3) (IIET, Wroclaw, Poland) with 9 µM Ac-DEVD-ACC fluorogenic substrate (λex = 360 nm, λem = 460 nm). The fluorescence increase correlated with the caspase-3/7 level was continuously recorded at 37 °C for 120 min using a Biotek Synergy H4 (Biokom, Warsaw, Poland). Compounds were tested in duplicates in single experiment and each experiment was repeated at least three times independently. Results were normalized to the number of cells in each well and are reported as mean relative caspase-3/7 activity compared to untreated control sample ± SD.

[7] = tested on: rats; design: method as in PMID 20141879; details: cited from earlier work
[8] = tested on: albino mice; design: method as in PMID 20141879; details: cited from earlier work
[9] = BALB/3T3, normal mouse fibroblasts

IC50 ([1]; Homo sapiens, MV4-11) [µM] | IC50 ([4]; Homo sapiens, LoVo) [µM] | IC50 ([5]; Homo sapiens, A549) [µM] | Compound | Induced death of cells [2] | Selectivity index SI, MV4-11 [1] | IC50 [3, 9] [µM] | Selectivity index SI, LoVo [4] | Selectivity index SI, A549 [5] | Increase of caspase-3/7 activity compared to the control [6] | IC50 [1] [µM] | IC50 [4] [µM] | IC50 [5] [µM] | Lethal dose (LD50) [7] [mg/kg] | Lethal dose (LD50) [8] | IC50 ([3]; normal mouse fibroblasts) [µM]
110 ± 41.6 | – | – | CC(C)CCCC(C)CCCC(C)CCC[C@]1(C)CC(=O)O[C@H]1CCl (stereo in doubt) [compound 7, cis-5-chloromethyl-4-methyl-4-(4′,8′,12′-trimethyltridecyl)dihydrofuran-2-one] | 20–30% | – | – | – | – | – | – | – | – | – | – | –
46.9 ± 11.7 | – | – | CC(C)CCCC(C)CCCC(C)CCC[C@]1(C)CC(=O)O[C@@H]1CBr (stereo in doubt) [compound 4, trans-5-Bromomethyl-4-methyl-4-(4′,8′,12′-trimethyltridecyl)dihydrofuran-2-one] | 20–30% | 7.43 | 348 ± 27.6 | – | – | – | – | – | – | – | – | –
– | 59.5 ± 1.1 | 49.5 ± 2.9 | C=CC(C)(CCCC(C)CCCC(C)CCCC(C)C)CC(=O)O (stereo not drawn) [compound 3, 3,7,11,15-tetramethyl-3-vinylhexadecanoic acid] | 50% | 3.69 | 145 ± 48 | 2.44 | 2.93 | 3 times | – | – | – | – | – | –
48.3 ± 19.6 | 293 ± 33.1 | 378 ± 32.8 | CC(C)CCCC(C)CCCC(C)CCC[C@]1(C)CC(=O)O[C@@H]1CCl (stereo in doubt) [compound 6, trans-5-Chloromethyl-4-methyl-4-(4′,8′,12′-trimethyltridecyl)dihydrofuran-2-one] | 50% | 5.65 | 273 ± 16.4 | 0.93 | 0.72 | about 1.5 times | – | – | – | – | – | –
– | – | – | 3,7,11,15-tetramethylhexadec-2-en-1-ol [Phytol (1), reference compound] | – | 1.25 | – | 0.25 | 1.01 | – | 51.4 ± 3.6 | 255 ± 46.5 | 64.1 ± 5.2 | > 10000 | above 5 g/kg | 64.5 ± 12.9
52 ± 13.8 | – | – | CC(C)CCCC(C)CCCC(C)CCC[C@]1(C)CC(=O)O[C@H]1CBr (stereo in doubt) [compound 5, cis-5-Bromomethyl-4-methyl-4-(4′,8′,12′-trimethyltridecyl)dihydrofuran-2-one] | 20–30% | 8.15 | 424 ± 140 | – | – | – | – | – | – | – | – | –
